According to US9346801B2, “Substituted 7-oxo-pyrido[2,3-d]pyrimidines and methods of use” (AMGEN INC., priority 2013, dated 2016):

Key:
Format in all cases: cell-based
[1] = tested on: HCC827 (Δ746-750) NSCLC cells; experiment: Inhibition of proliferation of NSCLC cell lines, HCC827; conditions: Homo sapiens, 72 h, Cell Titer Glow, read-out: HCC827 cell killing IC50
Description: (§1) NSCLC cell lines H1975 (T790M/L858R), HCC827 (Δ746-750) and A549 (wild-type) were seeded in 96-well tissue culture plates (Corning, Lowell, Mass.) at 5,000 cells/well (H1975) and 4,000 cells/well (HCC827 and A549) in 95 μL of cell growth media overnight. Compounds starting at 10 mM concentration and diluted 8 times (4-fold dilutions) in DMSO were diluted 50 fold in RPM1 then 5 μL was added to cells. After 72 h, viable cell signal was quantified using Cell Titer Glow (Promega, Madison, Wis.) and a SpectraMax M5 plate reader (Molecular Devices, Sunnyvale, Calif.) per manufacturer's instructions. Final DMSO concentration in test and control wells was 0.1%. No DSMO effect was noted on cell growth.

[2] = tested on: H1975 (T790M/L858R) NSCLC cells; experiment: Inhibition of proliferation of NSCLC cell lines, H1975; conditions: Cell Titer Glow; for IC50: Homo sapiens, NCI-H1975, 72 h, read-out: H1975 cell killing IC50; for H1975 cell killing IC50: 72 h
Description: as §1

[3] = target: T1, T790M mutant EGFR phosphorylation in H1975 (T790M/L858R) NSCLC cells (Homo sapiens, UniProt P00533, L858R/T790M); experiment: Detection of pEGFR on NSCLC cell lines (MSD multiplex), H1975; conditions: serum starved, 60 min compound
T1 construct: endogenous in cells; host or cells: H1975 NSCLC cells
T1 sequence (P00533 25-1210 T790M/L858R): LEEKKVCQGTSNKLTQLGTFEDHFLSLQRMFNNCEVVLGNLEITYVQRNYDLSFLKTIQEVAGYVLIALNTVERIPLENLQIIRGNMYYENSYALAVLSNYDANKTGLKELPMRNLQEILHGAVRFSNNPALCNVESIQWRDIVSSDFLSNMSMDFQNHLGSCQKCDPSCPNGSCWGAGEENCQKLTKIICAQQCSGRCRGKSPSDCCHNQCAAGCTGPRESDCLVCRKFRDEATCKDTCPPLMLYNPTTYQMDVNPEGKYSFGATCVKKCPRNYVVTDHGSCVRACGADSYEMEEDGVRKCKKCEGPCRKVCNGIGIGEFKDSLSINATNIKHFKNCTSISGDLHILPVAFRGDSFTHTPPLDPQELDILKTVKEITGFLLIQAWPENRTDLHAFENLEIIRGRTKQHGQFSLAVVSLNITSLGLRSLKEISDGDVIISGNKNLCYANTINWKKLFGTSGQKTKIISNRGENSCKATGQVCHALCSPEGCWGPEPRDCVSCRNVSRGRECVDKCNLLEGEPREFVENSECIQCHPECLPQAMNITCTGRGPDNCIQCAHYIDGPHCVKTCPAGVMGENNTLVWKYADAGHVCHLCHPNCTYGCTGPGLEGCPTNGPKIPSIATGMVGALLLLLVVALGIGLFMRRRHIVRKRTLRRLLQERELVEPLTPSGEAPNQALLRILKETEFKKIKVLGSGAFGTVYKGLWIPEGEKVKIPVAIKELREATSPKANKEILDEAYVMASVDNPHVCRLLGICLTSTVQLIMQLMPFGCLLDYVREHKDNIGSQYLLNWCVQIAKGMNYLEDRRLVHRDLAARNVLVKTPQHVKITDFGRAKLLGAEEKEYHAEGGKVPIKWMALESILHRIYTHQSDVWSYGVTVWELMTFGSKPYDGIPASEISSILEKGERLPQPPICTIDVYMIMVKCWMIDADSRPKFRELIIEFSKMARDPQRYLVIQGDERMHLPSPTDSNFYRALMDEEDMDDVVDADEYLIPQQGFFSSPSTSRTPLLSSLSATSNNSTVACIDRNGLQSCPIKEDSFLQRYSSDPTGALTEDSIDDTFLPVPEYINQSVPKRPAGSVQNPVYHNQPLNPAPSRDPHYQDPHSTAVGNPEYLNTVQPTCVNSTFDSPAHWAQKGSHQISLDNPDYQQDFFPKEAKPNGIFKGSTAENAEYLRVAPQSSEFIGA
Description: (§2) The effects of compounds on the phosphorylation of wild-type, T790M mutant, and Exon19 deletion (A746-750) EGFR were monitored using Mesoscalc™ multiplex assays (MSD), in which levels of phosphorylated EGFR protein were determined using total […] levels as a control. H1975 (T790M/L858R), HCC827 (Δ746-750) and A549 (wild-type EGFR) NSCLC cells were plated on 6-well tissue culture plates, serum starved for overnight and treated with 9 concentrations of compound starting at 2 μM (5-fold dilutions) for 60 min. Wild-type A549 cells were challenged with 100 ng/ml EGF for 15 min before collection. Cells were lysed according to manufacturer's instructions and lysates processed for analysis in the […]) multiplex plate reader.

[4] = target: T2, Exon19 deletion (Δ746-750) EGFR phosphorylation in HCC827 NSCLC cells (Homo sapiens, UniProt P00533, DEL746-750); experiment: Detection of pEGFR on NSCLC cell lines (MSD multiplex), HCC827; conditions: HCC827 (Δ746-750) cells, serum starved, 60 min compound
T2 construct: endogenous in cells; host or cells: HCC827 NSCLC cells
T2 sequence (P00533 with tags, fused parts or gaps DEL746-750): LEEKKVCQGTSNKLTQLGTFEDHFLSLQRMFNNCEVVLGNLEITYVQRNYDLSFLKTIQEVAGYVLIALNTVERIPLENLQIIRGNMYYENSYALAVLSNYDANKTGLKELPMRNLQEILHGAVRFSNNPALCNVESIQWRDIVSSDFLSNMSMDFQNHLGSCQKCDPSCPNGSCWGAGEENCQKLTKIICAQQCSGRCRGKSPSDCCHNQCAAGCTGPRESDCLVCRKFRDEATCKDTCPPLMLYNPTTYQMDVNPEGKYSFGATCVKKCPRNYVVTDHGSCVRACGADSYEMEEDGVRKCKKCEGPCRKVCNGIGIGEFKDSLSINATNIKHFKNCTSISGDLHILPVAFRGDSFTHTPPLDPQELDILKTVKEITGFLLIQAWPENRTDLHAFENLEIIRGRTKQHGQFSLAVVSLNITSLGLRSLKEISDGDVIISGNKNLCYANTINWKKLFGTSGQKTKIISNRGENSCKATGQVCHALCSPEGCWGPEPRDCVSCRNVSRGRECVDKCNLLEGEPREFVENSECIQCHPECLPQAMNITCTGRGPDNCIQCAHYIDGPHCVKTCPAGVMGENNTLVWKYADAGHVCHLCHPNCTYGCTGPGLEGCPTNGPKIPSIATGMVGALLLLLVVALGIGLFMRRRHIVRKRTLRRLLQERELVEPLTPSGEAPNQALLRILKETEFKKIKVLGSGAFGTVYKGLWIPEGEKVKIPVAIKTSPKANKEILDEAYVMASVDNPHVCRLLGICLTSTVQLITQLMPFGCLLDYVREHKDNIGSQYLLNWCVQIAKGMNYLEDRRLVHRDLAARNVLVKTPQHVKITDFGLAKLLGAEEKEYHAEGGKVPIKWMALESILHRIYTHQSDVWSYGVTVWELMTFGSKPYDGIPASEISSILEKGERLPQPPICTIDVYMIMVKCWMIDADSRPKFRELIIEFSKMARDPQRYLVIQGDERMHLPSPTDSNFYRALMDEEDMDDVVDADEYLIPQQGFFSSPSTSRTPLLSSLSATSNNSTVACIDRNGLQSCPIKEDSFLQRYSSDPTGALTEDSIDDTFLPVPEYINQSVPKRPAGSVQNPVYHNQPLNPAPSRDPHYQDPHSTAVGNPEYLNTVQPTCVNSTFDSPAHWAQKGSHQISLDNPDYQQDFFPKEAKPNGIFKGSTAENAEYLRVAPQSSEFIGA
Description: as §2

[5] = target: T3, wild-type EGFR phosphorylation in A549 NSCLC cells (Homo sapiens, UniProt P00533); experiment: Detection of pEGFR on NSCLC cell lines (MSD multiplex), A549; conditions: 60 min compound, 100 ng/ml EGF for 15 min
T3 construct: Wild-type A549 cells were challenged with 100 ng/ml EGF for 15 min before collection; endogenous in cells; host or cells: A549 NSCLC cells
T3 sequence (P00533 25-1210): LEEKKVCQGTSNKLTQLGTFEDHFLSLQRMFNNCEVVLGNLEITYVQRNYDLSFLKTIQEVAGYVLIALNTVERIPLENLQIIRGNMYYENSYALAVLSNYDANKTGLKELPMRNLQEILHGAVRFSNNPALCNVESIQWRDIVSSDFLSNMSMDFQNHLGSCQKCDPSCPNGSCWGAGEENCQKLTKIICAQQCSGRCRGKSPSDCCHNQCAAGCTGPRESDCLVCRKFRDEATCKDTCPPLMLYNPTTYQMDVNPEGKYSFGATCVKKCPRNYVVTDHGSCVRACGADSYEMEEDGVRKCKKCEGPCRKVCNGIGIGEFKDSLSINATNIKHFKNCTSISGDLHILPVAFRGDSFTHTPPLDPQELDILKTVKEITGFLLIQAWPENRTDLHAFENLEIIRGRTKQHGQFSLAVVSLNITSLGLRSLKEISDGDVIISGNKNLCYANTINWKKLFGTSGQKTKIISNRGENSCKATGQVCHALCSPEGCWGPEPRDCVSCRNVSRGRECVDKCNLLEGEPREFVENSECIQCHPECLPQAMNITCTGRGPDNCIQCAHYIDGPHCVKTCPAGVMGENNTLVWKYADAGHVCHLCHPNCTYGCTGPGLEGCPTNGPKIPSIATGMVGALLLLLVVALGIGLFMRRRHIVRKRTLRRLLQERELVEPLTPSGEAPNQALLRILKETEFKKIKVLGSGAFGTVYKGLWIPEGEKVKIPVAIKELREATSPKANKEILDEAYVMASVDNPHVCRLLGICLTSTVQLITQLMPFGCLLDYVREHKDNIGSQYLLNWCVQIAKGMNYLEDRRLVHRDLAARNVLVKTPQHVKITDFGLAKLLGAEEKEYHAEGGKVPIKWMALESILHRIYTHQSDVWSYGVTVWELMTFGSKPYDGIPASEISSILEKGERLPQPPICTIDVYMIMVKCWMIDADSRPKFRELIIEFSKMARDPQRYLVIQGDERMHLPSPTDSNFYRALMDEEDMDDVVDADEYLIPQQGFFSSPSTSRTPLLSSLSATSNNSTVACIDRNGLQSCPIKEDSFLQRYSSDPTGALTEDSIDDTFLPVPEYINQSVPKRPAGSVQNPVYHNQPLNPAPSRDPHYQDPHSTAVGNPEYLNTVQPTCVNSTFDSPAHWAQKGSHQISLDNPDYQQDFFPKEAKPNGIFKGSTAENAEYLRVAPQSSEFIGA
Description: as §2

| Compound | IC50 [1] [nM] | IC50 [2] [nM] | IC50 [3] [nM] | IC50 [4] [nM] | IC50 [5] [nM] | H1975 cell killing IC50 [2] |
| --- | --- | --- | --- | --- | --- | --- |
| C=CC(=O)Nc1cccc(-n2c(=O)ccc3cnc(Nc4ccc(N5CCN(C)CC5)cc4Cl)nc32)c1 [Example 15, N-(3-(2-((2-chloro-4-(4-methyl-1-piperazinyl)phenyl)amino)-7-oxopyrido[2,3-d]pyrimidin-8(7H)-yl)phenyl)-2-propenamide] | 3.5 | 11 | – | – | – | – |
| C/C=C/C(=O)Nc1cccc(-n2c(=O)ccc3cnc(Nc4ccc(N5CCN(C)CC5)cc4OC)nc32)c1 [Example 3, (2E)-N-(3-(2-((2-methoxy-4-(4-methyl-1-piperazinyl)phenyl)amino)-7-oxopyrido[2,3-d]pyrimidin-8(7H)-yl)phenyl)-2-butenamide] | 126 | 326 | – | – | – | – |
| C=CC(=O)Nc1cccc(-n2c(=O)ccc3cnc(Nc4ccc(N5CCN(C)CC5)cc4OC)nc32)c1 [Example 1, N-(3-(2-((2-methoxy-4-(4-methyl-1-piperazinyl)phenyl)amino)-7-oxopyrido[2,3-d]pyrimidin-8(7H)-yl)phenyl)-2-propenamide] | 4 | 8 | 3.2 | 3.4 | 76 | – |
| C=CC(=O)Nc1cccc(-n2c(=O)ccc3cnc(Nc4ccc(N5CCN(C)CC5)cc4)nc32)c1 [Example 4, N-(3-(2-((4-(4-methyl-1-piperazinyl)phenyl)amino)-7-oxopyrido[2,3-d]pyrimidin-8(7H)-yl)phenyl)-2-propenamide] | 1 | 0.7 | – | – | – | – |
| C=CC(=O)Nc1cccc(-n2c(=O)c(CC)cc3cnc(Nc4ccc(N5CCN(C)CC5)cc4OC)nc32)c1 [Example 6, N-(3-(6-ethyl-2-((2-methoxy-4-(4-methyl-1-piperazinyl)phenyl)amino)-7-oxopyrido[2,3-d]pyrimidin-8(7H)-yl)phenyl)-2-propenamide] | – | 12 | 4.3 | – | 8.2 | – |
| C=CC(=O)Nc1cccc(-n2c(=O)cc(C)c3cnc(Nc4ccc(N5CCOCC5)cc4OC)nc32)c1 [Example 7, N-(3-(2-((2-methoxy-4-(4-morpholinyl)phenyl)amino)-5-methyl-7-oxopyrido[2,3-d]pyrimidin-8(7H)-yl)phenyl)-2-propenamide] | 2.81 | – | – | – | – | undefined |
| C=CC(=O)Nc1cccc(-n2c(=O)ccc3cnc(Nc4ccc(NC5CN(C(C)=O)C5)cc4OC)nc32)c1 [Example 14, N-(3-(2-((4-((1-acetylazetidin-3-yl)amino)-2-methoxyphenyl)amino)-7-oxopyrido[2,3-d]pyrimidin-8(7H)-yl)phenyl)acrylamide] | 24 | 190 | – | – | – | – |
| C=CC(=O)Nc1cccc(-n2c(=O)ccc3cnc(Nc4cnc(N5CCN(C)CC5)cc4OC)nc32)c1 [Example 8, N-(3-(2-((4-methoxy-6-(4-methyl-1-piperazinyl)-3-pyridinyl)amino)-7-oxopyrido[2,3-d]pyrimidin-8(7H)-yl)phenyl)-2-propenamide] | 21 | 92 | – | – | – | – |
| COc1cc(N2CCN(C)CC2)ccc1Nc1ncc2ccc(=O)n(-c3cccc(NC(=O)CCl)c3)c2n1 [Example 12, 2-chloro-N-(3-(2-((2-methoxy-4-(4-methyl-1-piperazinyl)phenyl)amino)-7-oxopyrido[2,3-d]pyrimidin-8(7H)-yl)phenyl)acetamide] | 18 | 680 | – | – | – | – |
| C=CC(=O)Nc1cccc(-n2c(=O)cc(C)c3cnc(Nc4ccc(N5CCN(C)CC5)cc4)nc32)c1 [Example 17, N-(3-(5-methyl-2-((4-(4-methylpiperazin-1-yl)phenyl)amino)-7-oxopyrido[2,3-d]pyrimidin-8(7H)-yl)phenyl)acrylamide] | 7.3 | 3.6 | – | – | – | – |
| C=CC(=O)Nc1cccc(-n2c(=O)cc(C)c3cnc(Nc4ccc(NC5CN(CCF)C5)cc4OC)nc32)c1 [Example 16, N-(3-(2-((4-((1-(2-fluoroethyl)-3-azetidinyl)amino)-2-methoxyphenyl)amino)-5-methyl-7-oxopyrido[2,3-d]pyrimidin-8(7H)-yl)phenyl)-2-propenamide] | 18 | 22 | – | – | – | – |
| C=CC(=O)Nc1cccc(-n2c(=O)ccc3cnc(Nc4ccc(N5CCOCC5)cc4OC)nc32)c1 [Example 2, N-(3-(2-((2-methoxy-4-(4-morpholinyl)phenyl)amino)-7-oxopyrido[2,3-d]pyrimidin-8(7H)-yl)phenyl)-2-propenamide] | – | – | – | – | – | undefined |
| C=CC(=O)Nc1cccc(-n2c(=O)ccc3cnc(Nc4ccc(NC5CN(CCF)C5)cc4OC)nc32)c1 [Example 11, N-(3-(2-((4-((1-(2-fluoroethyl)-3-azetidinyl)amino)-2-methoxyphenyl)amino)-7-oxopyrido[2,3-d]pyrimidin-8(7H)-yl)phenyl)-2-propenamide] | 3 | 9.6 | 6 | 5 | 155 | – |
| C=CC(=O)Nc1cccc(-n2c(=O)cc(C)c3cnc(Nc4ccc(N5CCN(C)CC5)cc4OC)nc32)c1 [Example 5] | 10 | 4 | 2.8 | 8 | 323 | – |
| COc1cc(N2CCN(C)CC2)ccc1Nc1ncc2ccc(=O)n(-c3cccc(NC(=O)CCN(C)C)c3)c2n1 [Example 13, 3-(dimethylamino)-N-(3-(2-((2-methoxy-4-(4-methylpiperazin-1-yl)phenyl)amino)-7-oxopyrido[2,3-d]pyrimidin-8(7H)-yl)phenyl)propanamide] | 76 | 128 | – | – | – | – |
| C=CC(=O)Nc1ccc(F)c(-n2c(=O)ccc3cnc(Nc4ccc(N5CCN(C)CC5)cc4OC)nc32)c1 [Example 10, N-(4-fluoro-3-(2-((2-methoxy-4-(4-methyl-1-piperazinyl)phenyl)amino)-7-oxopyrido[2,3]pyrimidin-8(7H)-yl)phenyl)-2-propenamide] | 4 | 4 | 2 | – | 84 | – |
| COc1cc(N2CCN(C)CC2)ccc1Nc1ncc2ccc(=O)n(-c3cccc(NC(=O)/C=C/CN(C)C)c3)c2n1 [Example 9, (2E)-4-(dimethylamino)-N-(3-(2-((2-methoxy-4-(4-methyl-1-piperazinyl)phenyl)amino)-7-oxopyrido[2,3-d]pyrimidin-8(7H)-yl)phenyl)-2-butenamide] | 53 | 361 | – | – | – | – |
